Test results as given in patent US20050209278A1, “Piperidinyl- and piperazinyl-sulfonylmethyl hydroxamic acids and their use as protease inhibitors” (priority 2002, published 2005).

What was measured:
MMP-13 = target: T1, MMP-13 (Homo sapiens, UniProt P45452); assay: In vitro MMP inhibition, IC50 determination (fluorogenic substrate I); assay type: biochemical; conditions: value in parentheses; read-out: MMP-13 (IC-50)
T1 construct: made in house; host or cells: baculovirus / insect cells
Procedure: Several hydroxamic acids and salts thereof were analyzed in in vitro assays to determine their ability to inhibit the MMP cleavage of peptide substrates. […] and IC50 constants were calculated from the assayed hydroxamic acid-MMP interactions.
Human recombinant MMP-1, MMP-2, MMP-9, MMP-13, and MMP-14 were used in this assay. All enzymes were prepared in Assignee's laboratories following usual laboratory procedures. Protocols for the preparation and use of these enzymes are available in the scientific literature. See, e.g., Enzyme Nomenclature (Academic Press, San Diego, Calif., 1992) (and the citations therein). See also, Freije et al., “Molecular cloning and expression of collagenase-3, a novel human matrix metalloproteinase produced by breast carcinomas,” J Biol. Chem., 269(24), 16766-16773 (1994).
The MMP-13 was obtained as a proenzyme from a full-length cDNA clone using baculovirus, as described by V. A. Luckow, “Insect Cell Expression Technology,” Protein Engineering: Principles and Practice, pp. 183-218 (edited by J. L. Cleland et al., Wiley-Liss, Inc., 1996). The expressed proenzyme was first purified over a heparin agarose column, and then over a chelating zinc chloride column. The proenzyme was then activated by APMA for use in the assay. Further details on baculovirus expression systems may be found in, for example, Luckow et al., J. Virol., 67, 4566-79 (1993). See also, O'Reilly et al, Baculovirus Expression Vectors: A Laboratory Manual (W.H. Freeman and Co., New York, N.Y., 1992). See also, King et al., The Baculovirus Expression System: A Laboratory Guide (Chapman & Hall, London, England, 1992).
All MMPs were activated using 4-aminophenylmercuric acetate (“APMA”, Sigma Chemical, St. Louis, Mo.) or trypsin. MMP-9 also was activated using human recombinant MMP-3 (purified in Assignee's laboratory following standard cloning and purification techniques).
Two fluorogenic, methoxycoumarin-containing polypeptide substrates were used in the MMP inhibition assays: [drawing 427] Here, “Dpa” is 3-(2,4-dinitrophenyl)-L-2,3-diaminopropionyl group, and “MCA” is 7-methoxycoumarin-4-yl acetyl. Substrate (I) was purchased from Baychem (Redwood City, Calif.), and substrate II was prepared Assignee's laboratory. Substrate I was used in the IC50 determination assays, while substrate II was used in the Ki determination assays. In the absence of MMP inhibitory activity, either substrate is cleaved at the Gly-Leu peptide bond. This cleavage separates the highly fluorogenic peptide from the 2,4-dinitrophenyl quencher, thus resulting in increase of fluorescent intensity.
The stock solutions of the assayed hydroxamic acids (or salts thereof) were prepared in 1% dimethyl sulfoxide (DMSO). These stock solutions were diluted in Buffer A (100 mM Tris-HCl, 100 mM NaCl, 10 mM CaCl2, 0.05% polyoxyethylene 23 lauryl ether, pH 7.5) to obtain solutions with different hydroxamic acid concentrations, i.e., assay solutions with different concentrations of the assayed MMP inhibitory compound. The experiment controls contained the same amount of Buffer A/DMSO as the assayed sample, but contained no hydroxamic acid (or salt thereof).
The assays from which the IC50 determinations were made were performed as follows. The MMPs were activated with either trypsin or APMA (4-aminophenylmercuric acetate, Sigma Chemical, St. Louis, Mo.). The assayed hydroxamic acid samples were incubated in Microfluor™ White Plates (Dynatech, Chantilly, Va.) and analyzed on a Perkin Elmer L550 plate reader (Norwalk, Conn.). The excitation wavelength was 328 nm, and the emission wavelength—415 nm. All samples (assayed hydroxamic acids and controls) were incubated in separate plates at room temperature in the presence of 4 μM of MMP substrate (I). As stated in the previous paragraph, samples containing varying concentrations of the same assayed hydroxamic acid were prepared. Inhibition was measured as a reduction in fluorescent intensity as a function of MMP inhibitor concentration. […]

MMP-9 = target: T2, MMP-9 (Homo sapiens, UniProt P14780); assay: as above; assay type: biochemical; conditions: value in parentheses; read-out: MMP-9 (IC-50)
T2 construct: made in house; host or cells: MMP-9-transfected HT1080 cells (spent media)
Procedure: Several hydroxamic acids and salts thereof were analyzed in in vitro assays to determine their ability to inhibit the MMP cleavage of peptide substrates. […] and IC50 constants were calculated from the assayed hydroxamic acid-MMP interactions. Human recombinant MMP-1, MMP-2, MMP-9, MMP-13, and MMP-14 were used in this assay. All enzymes were prepared in Assignee's laboratories following usual laboratory procedures. Protocols for the preparation and use of these enzymes are available in the scientific literature. See, e.g., Enzyme Nomenclature (Academic Press, San Diego, Calif., 1992) (and the citations therein). See also, Freije et al., “Molecular cloning and expression of collagenase-3, a novel human matrix metalloproteinase produced by breast carcinomas,” J Biol. Chem., 269(24), 16766-16773 (1994). The MMP-9 proenzyme was purified by gelatin Sepharose chromatography from spent media of MMP-9-transfected HT1080 cells provided by Dr. Howard Welgus of Washington University (St. Louis, Mo.). All MMPs were activated using 4-aminophenylmercuric acetate (“APMA”, Sigma Chemical, St. Louis, Mo.) or trypsin. MMP-9 also was activated using human recombinant MMP-3 (purified in Assignee's laboratory following standard cloning and purification techniques). […] Substrate (I) was purchased from Baychem (Redwood City, Calif.), and substrate II was prepared Assignee's laboratory. Substrate I was used in the IC50 determination assays, while substrate II was used in the Ki determination assays. In the absence of MMP inhibitory activity, either substrate is cleaved at the Gly-Leu peptide bond. […] The stock solutions of the assayed hydroxamic acids (or salts thereof) were prepared in 1% dimethyl sulfoxide (DMSO). […] The experiment controls contained the same amount of Buffer A/DMSO as the assayed sample, but contained no hydroxamic acid (or salt thereof). The assays from which the IC50 determinations were made were performed as follows. […] Louis, Mo.). The assayed hydroxamic acid samples were incubated in MicrofluorTM White Plates (Dynatech, Chantilly, Va.) and analyzed on a Perkin Elmer […] plate reader (Norwalk, Conn.). The excitation wavelength was 328 nm, and the emission wavelength-415 nm. […] As stated in the previous paragraph, samples containing varying concentrations of the same assayed hydroxamic acid were prepared. Inhibition was measured as a reduction in fluorescent intensity as a function of MMP inhibitor concentration. […] All values in Table 2 are given in nM units. The IC50 measurements are in parenthesis.

T2 sequence (P14780 107-707 limits assumed): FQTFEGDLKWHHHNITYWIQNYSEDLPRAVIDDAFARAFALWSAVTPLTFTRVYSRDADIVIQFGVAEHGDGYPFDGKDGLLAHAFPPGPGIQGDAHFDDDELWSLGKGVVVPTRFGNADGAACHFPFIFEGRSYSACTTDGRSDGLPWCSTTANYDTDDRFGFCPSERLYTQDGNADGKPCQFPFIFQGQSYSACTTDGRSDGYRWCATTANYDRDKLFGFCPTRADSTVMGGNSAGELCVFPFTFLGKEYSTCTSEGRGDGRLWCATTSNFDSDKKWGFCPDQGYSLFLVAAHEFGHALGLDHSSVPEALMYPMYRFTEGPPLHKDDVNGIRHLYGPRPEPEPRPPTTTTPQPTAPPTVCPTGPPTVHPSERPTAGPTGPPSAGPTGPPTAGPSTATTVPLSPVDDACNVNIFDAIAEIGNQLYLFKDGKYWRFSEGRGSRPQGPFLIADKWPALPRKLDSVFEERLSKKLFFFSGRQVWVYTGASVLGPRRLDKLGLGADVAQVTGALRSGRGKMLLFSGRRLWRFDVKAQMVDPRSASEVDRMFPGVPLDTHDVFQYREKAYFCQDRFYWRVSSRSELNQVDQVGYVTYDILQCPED

| Structure (SMILES) | IC50 (MMP-13) | IC50 (MMP-9) |
| --- | --- | --- |
| CCCCOc1ccc(N2CCN(S(=O)(=O)C3(C(=O)NO)CCN(Cc4cccnc4)CC3)CC2)cc1F [Example 293] | 0.8 nM |  |
| CCCCOc1ccc(N2CCN(S(=O)(=O)C3(C(=O)NO)CCN(c4ccc(C)cc4)CC3)CC2)cc1F [Example 296] | 0.9 nM | 116 nM |
| COCCOc1ccc(N2CCN(S(=O)(=O)C3(C(=O)NO)CCN(C4CC4)CC3)CC2)cc1F [Example 297] | 1.7 nM | 31.1 nM |
| CCCCOc1ccc(N2CCN(S(=O)(=O)C3(C(=O)NO)CCN(CC4CC4)CC3)CC2)cc1 [Example 298] | 0.9 nM | 3 nM |
| Cc1cc(N2CCN(S(=O)(=O)C3(C(=O)NO)CCOCC3)CC2)ccc1OC(C)C [Example 299] | 9.3 nM |  |
| CS(=O)(=O)c1ccc(N2CCN(S(=O)(=O)C3(C(=O)NO)CCOCC3)CC2)cc1 [Example 300] | 61.2 nM |  |

Now those with a lower IC50 (MMP-13), led by results:

| IC50 (MMP-13) | IC50 (MMP-9) | Structure (SMILES) |
| --- | --- | --- |
| 0.7 nM |  | CCCCOc1ccc(N2CCN(S(=O)(=O)C3(C(=O)NO)CCN(C(=O)CN)CC3)CC2)cc1 [Example 292] |
| < 0.1 nM | 0.1 nM | CCCCOc1ccc(N2CCN(S(=O)(=O)C3(C(=O)NO)CCN(c4ccc(C)cc4)CC3)CC2)cc1 [Example 295] |
| 0.3 nM | 0.6 nM | CCCCOc1ccc(N2CCN(S(=O)(=O)C3(C(=O)NO)CCN(C4CC4)CC3)CC2)cc1 [Example 301] |
| 0.1 nM | 0.3 nM | C#CCN1CCC(C(=O)NO)(S(=O)(=O)N2CCN(c3ccc(OCCCC)cc3)CC2)CC1 [Example 303] |
